Laboratory results: PubChem BioAssay AID192 (DTP/NCI, 2004)
Where “and” joins values, the source holds several entries; their conditions need not be identical. Equal entries are not always repeated. Toxic doses and inconclusive results are not listed. Peptide text beside a SMILES is read from it. * marks the point of attachment. Cbz = O=C(OCc1ccccc1)*

System: BDF1 mice, B16 melanoma ip, median survival T/C
Test: NCI In Vivo Anticancer Drug Screen. Data for tumor model B16 Melanoma (intraperitoneal) in B6D2F1 (BDF1) mice
Details: endpoint: median survival time, higher = longer survival
In short: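 Each result divides a survival or tumor-size measurement in the compound-treated group by the same measurement in the vehicle group.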

[1] = dose: 50.0 mg/kg/injection, schedule: Q01DX009 (ip), vehicle: Klucel (hydroxypropylcellulose) (HPC)
[2] = dose: 100.0 mg/kg/injection, schedule: Q01DX009 (ip), vehicle: Klucel (hydroxypropylcellulose) (HPC)
[3] = dose: 50.0 mg/kg/injection, schedule: Q01DX009 (ip), vehicle: saline with Tween-80

With `CCC1(O)CC2CN(CCc3c([nH]c4ccccc34)C(C(=O)OC)(c3cc4c(cc3OC)N(C)C3C(O)(C(N)=O)C(O)C5(CC)C=CCN6CCC43C65)C2)C1` (stereo not drawn) (tested in a mixture with another compound) the T/C (dose: 0.12 mg/kg/injection, schedule: Q04DX003 (ip), vehicle: water) was 115 % of control, the T/C (dose: 0.13 mg/kg/injection, schedule: Q01DX009 (ip), vehicle: water) was 162 % of control and the T/C (dose: 0.18 mg/kg/injection, schedule: Q04DX003 (ip), vehicle: saline) was 159 % of control. For the same compound, the T/C (dose: 0.22 mg/kg/injection, schedule: Q01DX009 (ip), vehicle: water) was 183 % of control, the T/C (dose: 0.25 mg/kg/injection, schedule: Q04DX003 (ip), vehicle: saline) was 108 % of control and the T/C (dose: 0.25 mg/kg/injection, schedule: Q04DX003 (ip), vehicle: water) was 115 % of control. The T/C (dose: 0.3 mg/kg/injection, schedule: Q04DX003 (ip), vehicle: saline) was 177 % of control, the T/C (dose: 0.36 mg/kg/injection, schedule: Q01DX009 (ip), vehicle: water) was 151 % of control and 184 % of control and the T/C (dose: 0.39 mg/kg/injection, schedule: Q04DX003 (ip), vehicle: saline) was 176 % of control. The T/C (dose: 0.5 mg/kg/injection, schedule: Q04DX003 (ip), vehicle: saline) was 109 % of control and 236 % of control, the T/C (dose: 0.5 mg/kg/injection, schedule: Q04DX003 (ip), vehicle: water) was 118 % of control and the T/C (dose: 0.52 mg/kg/injection, schedule: Q04DX003 (ip), vehicle: water) was 183 % of control. For the same compound, the T/C (dose: 0.6 mg/kg/injection, schedule: Q01DX009 (ip), vehicle: water) was 241 % of control, the T/C (dose: 0.6 mg/kg/injection, schedule: Q04DX003 (ip), vehicle: saline) was 119 % of control and the T/C (dose: 0.65 mg/kg/injection, schedule: Q04DX003 (ip), vehicle: saline) was 172 % of control. For the same compound, the T/C (dose: 0.86 mg/kg/injection, schedule: Q04DX003 (ip), vehicle: water) was 166 % of control and 202 % of control, the T/C (dose: 1.0 mg/kg/injection, schedule: Q04DX003 (ip), vehicle: saline) was 168 % of control and the T/C (dose: 1.04 mg/kg/injection, schedule: Q01DX001 (ip), vehicle: water) was 122 % of control. The T/C (dose: 1.08 mg/kg/injection, schedule: Q04DX003 (ip), vehicle: saline) was 206 % of control, the T/C (dose: 1.44 mg/kg/injection, schedule: Q04DX003 (ip), vehicle: water) was 151 % of control and 275 % of control and the T/C (dose: 1.73 mg/kg/injection, schedule: Q01DX001 (ip), vehicle: water) was 165 % of control. The T/C (dose: 1.8 mg/kg/injection, schedule: Q04DX003 (ip), vehicle: saline) was 241 % of control, the T/C (dose: 2.0 mg/kg/injection, schedule: Q04DX003 (ip), vehicle: saline) was 180 % of control and the T/C (dose: 2.9 mg/kg/injection, schedule: Q01DX001 (ip), vehicle: water) was 166 % of control. The T/C (dose: 4.0 mg/kg/injection, schedule: Q04DX003 (ip), vehicle: saline) was 181 % of control, the T/C (dose: 4.8 mg/kg/injection, schedule: Q01DX001 (ip), vehicle: water) was 152 % of control and 194 % of control and the T/C (dose: 8.0 mg/kg/injection, schedule: Q01DX001 (ip), vehicle: water) was 211 % of control. The T/C (dose: 37.5 micrograms/kg/injection, schedule: Q01DX009 (ip), vehicle: water) was 98 % of control, the T/C (dose: 60.0 micrograms/kg/injection, schedule: Q01DX009 (ip), vehicle: saline) was 151 % of control and the T/C (dose: 75.0 micrograms/kg/injection, schedule: Q01DX009 (ip), vehicle: water) was 107 % of control. For the same compound, the T/C (dose: 100.0 micrograms/kg/injection, schedule: Q01DX009 (ip), vehicle: saline) was 152 % of control, the T/C (dose: 130.0 micrograms/kg/injection, schedule: Q01DX009 (ip), vehicle: water) was 120 % of control and the T/C (dose: 150.0 micrograms/kg/injection, schedule: Q01DX009 (ip), vehicle: water) was 111 % of control. The T/C (dose: 170.0 micrograms/kg/injection, schedule: Q01DX009 (ip), vehicle: saline) was 226 % of control, the T/C (dose: 216.0 micrograms/kg/injection, schedule: Q01DX009 (ip), vehicle: saline) was 173 % of control and the T/C (dose: 216.0 micrograms/kg/injection, schedule: Q01DX009 (ip), vehicle: water) was 150 % of control and 165 % of control. For the same compound, the T/C (dose: 300.0 micrograms/kg/injection, schedule: Q01DX009 (ip), vehicle: water) was 123 % of control, the T/C (dose: 360.0 micrograms/kg/injection, schedule: Q01DX009 (ip), vehicle: saline) was 183 % of control and the T/C (dose: 360.0 micrograms/kg/injection, schedule: Q01DX009 (ip), vehicle: water) was 155 % of control. For the same compound, the T/C (dose: 389.0 micrograms/kg/injection, schedule: Q04DX003 (ip), vehicle: saline) was 187 % of control and 207 % of control, the T/C (dose: 600.0 micrograms/kg/injection, schedule: Q01DX009 (ip), vehicle: saline) was 191 % of control and the T/C (dose: 600.0 micrograms/kg/injection, schedule: Q01DX009 (ip), vehicle: water) was 155 % of control and 175 % of control. For the same compound, the T/C (dose: 648.0 micrograms/kg/injection, schedule: Q04DX003 (ip), vehicle: saline) was 179 % of control and 258 % of control, the T/C (dose: 1080.0 micrograms/kg/injection, schedule: Q04DX003 (ip), vehicle: saline) was 161 % of control and 214 % of control and 225 % of control and the T/C (dose: 1800.0 micrograms/kg/injection, schedule: Q04DX003 (ip), vehicle: saline) was 195 % of control and 248 % of control and 303 % of control. For the same compound, the T/C (dose: 3000.0 micrograms/kg/injection, schedule: Q04DX003 (ip), vehicle: saline) was 152 % of control and 243 % of control and 308 % of control.
In the case of `NC(=O)/C=C/C(=O)c1c(Cl)cccc1Cl`, the T/C (dose: 0.78 mg/kg/injection, schedule: Q01DX009 (ip), vehicle: saline with Tween-80) was 103 % of control, the T/C (dose: 1.56 mg/kg/injection, schedule: Q01DX009 (ip), vehicle: saline with Tween-80) was 106 % of control and the T/C (dose: 3.12 mg/kg/injection, schedule: Q01DX009 (ip), vehicle: saline with Tween-80) was 112 % of control.
For `O=c1oc(-c2cccc([N+](=O)[O-])c2)nc2ccccc12`, the T/C [1] was 106 % of control and the T/C [2] was 86 % of control.
`c1ccc([I+]c2ccccc2)cc1` was tested, and the T/C (dose: 1.0 mg/kg/injection, schedule: Q01DX009 (ip), vehicle: saline + Tween-80 + alcohol) was 103 % of control, the T/C (dose: 2.0 mg/kg/injection, schedule: Q01DX009 (ip), vehicle: saline + Tween-80 + alcohol) was 97 % of control and the T/C (dose: 4.0 mg/kg/injection, schedule: Q01DX009 (ip), vehicle: saline + Tween-80 + alcohol) was 108 % of control. The T/C (dose: 6.0 mg/kg/injection, schedule: Q01DX009 (sc), vehicle: olive oil, sesame oil, peanut oil) was 100 % of control.
For `O=C1NC(c2cccc3ccccc23)Nc2ccccc21` (stereo not drawn), the T/C (dose: 15.6 mg/kg/injection, schedule: Q01DX009 (ip), vehicle: Klucel (hydroxypropylcellulose) (HPC)) was 97 % of control, the T/C (dose: 31.2 mg/kg/injection, schedule: Q01DX009 (ip), vehicle: Klucel (hydroxypropylcellulose) (HPC)) was 100 % of control and the T/C (dose: 62.5 mg/kg/injection, schedule: Q01DX009 (ip), vehicle: Klucel (hydroxypropylcellulose) (HPC)) was 104 % of control. The T/C (dose: 125.0 mg/kg/injection, schedule: Q01DX009 (ip), vehicle: Klucel (hydroxypropylcellulose) (HPC)) was 108 % of control.
In the case of `COC(=O)CNC(=O)C(NC(=O)C1CCCN1C(=O)OCc1ccccc1)C(C)C` (stereo not drawn) (Cbz-Pro-Val-Gly-OMe; configuration not given here), the T/C [3] was 91 % of control and the T/C (dose: 100.0 mg/kg/injection, schedule: Q01DX009 (ip), vehicle: saline with Tween-80) was 88 % of control.
In the case of `NC(=O)c1ncn(C2OC(CO)C(O)C2O)c1O` (stereo not drawn), the T/C (dose: 25.0 mg/kg/injection, schedule: Q01DX009 (ip), vehicle: Klucel (hydroxypropylcellulose) (HPC)) was 104 % of control, the T/C [1] was 114 % of control and the T/C [2] was 109 % of control. For the same compound, the T/C (dose: 200.0 mg/kg/injection, schedule: Q01DX009 (ip), vehicle: Klucel (hydroxypropylcellulose) (HPC)) was 111 % of control.
`NC(=S)N/N=C\c1nccc2c(N)cccc12` was tested, and the T/C (dose: 6.25 mg/kg/injection, schedule: Q01DX009 (ip), vehicle: saline with Tween-80) was 115 % of control and 120 % of control, the T/C (dose: 6.25 mg/kg/injection, schedule: Q01DX009 (ip), vehicle: saline) was 160 % of control and the T/C (dose: 12.5 mg/kg/injection, schedule: Q01DX009 (ip), vehicle: saline with Tween-80) was 119 % of control. The T/C (dose: 12.5 mg/kg/injection, schedule: Q01DX009 (ip), vehicle: saline) was 172 % of control, the T/C (dose: 18.8 mg/kg/injection, schedule: Q04DX003 (ip), vehicle: saline) was 155 % of control and the T/C (dose: 25.0 mg/kg/injection, schedule: Q01DX009 (ip), vehicle: saline with Tween-80) was 156 % of control. The T/C (dose: 25.0 mg/kg/injection, schedule: Q01DX009 (ip), vehicle: saline) was 179 % of control, the T/C (dose: 37.5 mg/kg/injection, schedule: Q04DX003 (ip), vehicle: saline) was 168 % of control and the T/C [3] was 164 % of control and 175 % of control. For the same compound, the T/C (dose: 50.0 mg/kg/injection, schedule: Q01DX009 (ip), vehicle: saline) was 197 % of control, the T/C (dose: 75.0 mg/kg/injection, schedule: Q01DX009 (ip), vehicle: saline with Tween-80) was 150 % of control and 153 % of control and 165 % of control and the T/C (dose: 75.0 mg/kg/injection, schedule: Q04DX003 (ip), vehicle: saline) was 168 % of control. The T/C (dose: 150.0 mg/kg/injection, schedule: Q04DX003 (ip), vehicle: saline) was 179 % of control.
